Test results reported in patent US20080194640A1, “Optically Active Tetrahydronaphthalene Derivative” (priority 2005, published 2008).
pIC50: −log10 of the molar value.

Legend:
[1] = Evaluation of biological availability (bioavailability) in rat; type: in vivo; conditions: for AUC: rat, fasted female SD rats, plasma
Method: Free base•Form-I crystal was administered to female SD rats fasted from the day before the experiment and the plasma concentration was measured under the following conditions. As a result, the areas under blood concentration-time curve (AUC) of the drug after intravenous administration and oral administration are as shown in Table 1.
• Dosing formulation: 0.5 mg/ml in aqueous physiological saline. • Dose: 1 mg/2 ml/kg • Administration method: bolus administration from the tail vein Collection of blood samples: About 0.1-0.2 mL of blood was taken from the cervical vein at 3 min, 10 min, 30 min, 1 hr, 2 hr, 4 hr and 6 hr after administration. The blood was centrifuged, and the plasma was separated.
• Dosing formulation: 2 mg/ml suspension adjusted by gradually adding aqueous hydroxypropylmethylcellulose solution to the compound of the present invention thoroughly triturated in an agate mortar. • Dose: 10 mg/5 ml/kg • Administration method: Forcible administration into the stomach • Collection of blood samples: About 0.1-0.2 mL of blood was taken from the cervical vein at 30 min, 1 hr, 2 hr, 4 hr, 6 hr, 8 hr and 24 hr after administration. The blood was centrifuged, and the plasma was separated.
The plasma concentration of the administered compound was measured by LC-MS/MS.
LC conditions • Column: Capcellpak C18 UG-120 (2.0φ mm×50 mm, S-5 μm, Shiseido Co., Ltd.) • Mobile phase: acetonitrile • Flow rate: 0.25 mL/min • Column temperature: room temperature • Auto sampler temperature set to: 25° C. • Gradient setting: • 0 min→0.6 min:25%→25% • 0.6 min→3.6 min:25%→75% • 3.6 min→6 min:75%→75% • 6 min→6.1 min:75%→25% • 6.1 min→9.5 min:25%→25% • MS/MS conditions • Ionization method: ESI • Capillary temperature: 350° C. • Sheath gas pressure: 80 psi • Spray voltage: 4.5 kV.
The plasma concentration of the racemate was measured by a similar method, and the biological availability was calculated and found to be 20%.

[2] = tested on: C5a stimulated neutrophil; assay: Production of reactive oxygen species in C5a-stimulated neutrophil; type: cell-based; conditions: human neutrophil, C5a 3 nmol/L, luminol luminescence, 37° C.; read-out: IC50 value, inhibition of production of reactive oxygen species in C5a stimulated neutrophil
Method: A neutrophil fraction was separately taken from human peripheral venous blood using Lympholyte-poly (Cedarlane), and suspended in Hank's Balanced Salt Solution (HBSS, GIBCO BRL) containing 1% fetal bovine serum (FBS) and 1 mmol/L luminol (Wako Pure Chemical Industries, Ltd.). Reactive oxygen species was measured using a luminometer (MicroLumat, Berthold) for 96-well plate. […] Then, 25 μL of C5a (final concentration 3 nmol/L) was added and luminescence produced by the reaction of the luminol and the reactive oxygen species was measured with the lapse of time for 15 min. The rate of inhibition (% inhibition) of the production of reactive oxygen species in C5a stimulated neutrophil by the test compound was calculated by the following formula, wherein the peak value of the production of reactive oxygen species derived by C5a without addition of the test compound is Max, the peak value of the production of reactive oxygen species without addition of the test compound and without C5a stimulation is Min, and the peak value of the production of reactive oxygen species derived by C5a with the addition of the test compound is Test. […]

With `CCn1cc(CN(C(=O)C2CCCc3c(O)cccc32)c2ccc(C(C)C)nc2)cn1` (racemic) [racemate of the compound of Example 3, N-[(1-ethyl-1H-pyrazol-4-yl)methyl]-5-hydroxy-N-(6-isopropylpyridin-3-yl)-1,2,3,4-tetrahydronaphthalene-1-carboxamide, reference compound] the biological availability ([1]; female SD rats, oral 10 mg/kg vs intravenous 1 mg/kg) was 20%, the AUC ([1]; intravenous administration 1 mg/kg) was 289 ng·h/mL and the AUC ([1]; oral administration 10 mg/kg) was 572 ng·h/mL. The pIC50 [2] was 8.23.
